Assay results: patent US5556862A, “Pharmaceutical compositions containing isoquinoline derivatives” (Nippon Zoki Pharmaceutical Co., Ltd., priority 1993, dated 1996)
Where a name gives a salt, the structure may show the parent alone. One block for each compound: values may come before it.

Target: PDEIV
Experiment: Inhibitory activity towards phosphodiesterase type IV isozyme ([3H] cAMP substrate, in the presence of 10 μM cilostazol)
Format: biochemical
Details: type IV isozyme from porcine artery, 30° C.

- IC50 (pH 7.5, hydrochloride): 8.1 µM
Structure (SMILES): CCOc1ccc(CC2=NCCc3cc(OCC)c(OCC)cc32)cc1OCC [Compound 4, 1-(3',4'-Diethoxybenzyl)-6,7-diethoxy-3,4-dihydroisoquinoline hydrochloride]

- IC50 (pH 7.5, monohydrate): 17.2 µM
Structure (SMILES): CCOc1ccc(CC2=NCCc3cc(OCC)c(OCC)cc32)cc1OCC [Compound 6, 1-(3',4'-Diethoxybenzyl)-6,7-diethoxy-3,4-dihydroisoquinolinium-theophylline-7-acetate monohydrate]

- IC50 (pH 7.5): 26.1 µM
Structure (SMILES): CCCCOc1cc(CC2CNC(=O)N2)ccc1OC (stereo not drawn) [Ro20-1724, reference compound]
